Measurements from patent US20240238212A1, “LIPID COMPOUNDS AND LIPID NANOPARTICLE COMPOSITIONS” (SUZHOU ABOGEN BIOSCIENCES CO., LTD., priority 2022, published 2024).

How the values were obtained:
[1] = Lipid nanoparticle size and polydispersity by dynamic light scattering; format: physicochemical; conditions: LNP comprising the compound, hEPO mRNA; for Size (nm): cationic lipid/DSPC/cholesterol/PEG-lipid 50:10:38.5:1.5
Experimental: (§1) Briefly, a cationic lipid provided herein, DSPC, cholesterol, and PEG-lipid were solubilized in ethanol at a molar ratio of 50:10:38.5:1.5, and mRNA were diluted in 10 to 50 mM citrate buffer, pH=4. The LNPs were prepared at a total lipid to mRNA weight ratio of approximately 10:1 to 30:1 by mixing the ethanolic lipid solution with the aqueous mRNA solution at a volume ratio of 1:3 using a microfluidic apparatus, total flow rate ranging from 9-30 mL/min. Ethanol were thereby removed and replaced by DPBS using dialysis. Finally, the lipid nanoparticles were filtered through a 0.2 μm sterile filter.
(§2) Lipid nanoparticle size were determined by dynamic light scattering using a Malvern Zetasizer Nano ZS (Malvern UK) using a 173° backscatter detection mode. The encapsulation efficiency of lipid nanoparticles were determined using a Quant-it Ribogreen RNA quantification assay kit (Thermo Fisher Scientific, UK) according to the manufacturer's instructions.

[2] = Apparent pKa of LNP formulations (TNS fluorescence assay); format: physicochemical; conditions: LNP formulation, TNS assay (Table 2)
Experimental: As reported in literature, the apparent pKa of LNP formulations correlates with the delivery efficiency of LNPs for nucleic acids in vivo. The apparent pKa of each formulation was determined using an assay based on fluorescence of 2-(p-toluidino)-6-napthalene sulfonic acid (TNS). LNP formulations comprising of cationic lipid/DSPC/cholesterol/DMG-PEG (50/10/38.5/1.5 mol %) in PBS were prepared as described above. TNS was prepared as a 300 μM stock solution in distilled water. LNP formulations were diluted to 0.1 mg/mL total lipid in 3 mL of buffered solutions containing 50 mM sodium citrate, 50 mM sodium phosphate, 50 mM sodium borate, and 30 mM sodium chloride where the pH ranged from 3 to 9. An aliquot of the TNS solution was added to give a final concentration of […] and following vortex mixing fluorescence intensity was measured at room temperature in a Molecular Devices Spectramax iD3 spectrometer using excitation and mission wavelengths of 325 nm and 435 nm. A sigmoidal best fit analysis was applied to the fluorescence data and the pKa value was measured as the pH giving rise to half-maximal fluorescent intensity.

[3] = Encapsulation efficiency of lipid nanoparticles (Quant-it Ribogreen RNA assay); format: physicochemical; conditions: LNP comprising the compound, hEPO mRNA
Experimental: as §1, §2

[4] = test system: human erythropoietin (hEPO) mRNA expression; test: Animal Study 1: hEPO mRNA LNPs i.v. in mice, serum EPO by ELISA; format: in vivo; conditions: female ICR mice, 0.5 mg/kg tail vein injection, blood e.g. 6 hours post administration; relative to MC3 LNP
Experimental: Lipid nanoparticles comprising compounds in the following table encapsulating human erythropoietin (hEPO) mRNA were systemically administered to 6-8 week old female ICR mice (Xipuer-Bikai, Shanghai) at 0.5 mg/kg dose by tail vein injection and mice blood were sampled at specific time points (e.g., 6 hours) post administration. In addition to the aforementioned tested groups, lipid nanoparticles comprising dilinoleylmethyl-4-dimethylaminobutyrate (DLin-MC3-DMA, usually abbreviated to MC3) encapsulating hEPO mRNA were similarly administered at the same dose to age and gender comparative groups of mice as a positive control.
Mice were euthanized by CO2 overdoses after the last sampling time point. Serum were separated from total blood by centrifugation at 5000 g for 10 minutes at 4 T, snap-frozen and stored at −80 T for analysis. ELISA assay were carried out using a commercial kit (DEP00, R&D systems) according to manufacturer's instructions.
Characteristics of tested lipid nanoparticles, including EPO expression levels over MC3 measured from the tested group are listed in the table below.

In the case of `CCCCCCCC(=O)OCC(CCCCN(CCCCCO)CCCCC(COC(=O)CCCCCCC)COC(=O)CCCCCCC)COC(=O)CCCCCCC` [Compound 3], the Polydispersity [1] is reported as 0.101, the “Size (nm)” value [1] is reported as 72.97 nm and the “Apparent pKa” value [2] is reported as 6.726. For the same molecule, the Encapsulation efficiency [3] was 88.90% and the “EPO expression over MC3” value [4] was “A (≥2)”.
With `CCCCCCCCCCC(=O)OCCCCCCN(CCCCC(COC(=O)CCCCCCC)COC(=O)CCCCCCC)CCCNc1c(N(C)C)c(=O)c1=O` [Compound 40] the Polydispersity [1] was 0.1163, the “Size (nm)” value [1] was 66.72 nm and the Encapsulation efficiency [3] was 93.31%.
For `CCCCCCCC(=O)OCC(CCCCN(CCCCC(COC(=O)CCCCCCC)COC(=O)CCCCCCC)C1CCC(O)CC1)COC(=O)CCCCCCC` (centres unmarked) [Compound 16], the Polydispersity [1] was 0.021, the “Size (nm)” value [1] was 68.14 nm and the “Apparent pKa” value [2] was 6.509. The Encapsulation efficiency [3] was 90.78% and the “EPO expression over MC3” value [4] was “A (≥2)”.
In the case of `CCCCCCCCC(CCCCCC)CNC(=O)CCCCCN(CCO)CCCCC(COC(=O)C(CCCCCC)CCCCCCCC)COC(=O)C(CCCCCC)CCCCCCCC` (centres unmarked) [Compound 26], the Polydispersity [1] is reported as 0.01, the “Size (nm)” value [1] is reported as 55.11 nm and the “Apparent pKa” value [2] is reported as 6.332. For the same molecule, the Encapsulation efficiency [3] was 85.33% and the “EPO expression over MC3” value [4] was “C (≥0.1 and <1)”.
For `CCCCCCCC(=O)OCC(CCCCN(CCCCC(COC(=O)CCCCCCC)COC(=O)CCCCCCC)[C@H](CO)C(C)C)COC(=O)CCCCCCC` [Compound 46], the Polydispersity [1] was 0.135, the “Size (nm)” value [1] was 68.21 nm and the Encapsulation efficiency [3] was 73.99%.
In the case of `CCCCCCCCC(CCCCCC)CNC(=O)CCCCCN(CCCCC(COC(=O)CCCCCCC)COC(=O)CCCCCCC)CC1(CO)CCCC1` (centres unmarked) [Compound 62], the Polydispersity [1] is reported as 0.031, the “Size (nm)” value [1] is reported as 71.06 nm and the “Apparent pKa” value [2] is reported as 5.299. For the same molecule, the Encapsulation efficiency [3] was 88.45% and the “EPO expression over MC3” value [4] was “D (<0.1)”.
For `CCCCCCCC(=O)OCC(CCCCN(CCCCC(COC(=O)CCCCCCC)COC(=O)CCCCCCC)CCCNc1c(N(C)CC)c(=O)c1=O)COC(=O)CCCCCCC` [Compound 34], the Polydispersity [1] was 0.04761, the “Size (nm)” value [1] was 67.6 nm and the “Apparent pKa” value [2] was 6.34. The Encapsulation efficiency [3] was 89.70% and the “EPO expression over MC3” value [4] was “A (≥2)”.
With `CCCCCCCC(=O)OCC(CCCCN(CCCCC(COC(=O)CCCCCCC)COC(=O)CCCCCCC)[C@@H]1CC[C@H](O)C1)COC(=O)CCCCCCC` [Compound 47] the Polydispersity [1] was 0.039, the “Size (nm)” value [1] was 91.46 nm and the “Apparent pKa” value [2] was 6.767. For the same molecule, the Encapsulation efficiency [3] was 89.99% and the “EPO expression over MC3” value [4] was “A (≥2)”.
For `CCCCCCCC(=O)OCC(COC(=O)CCCCCCC)COC(=O)CCCCCCCN(CCO)CCCCCCCC(=O)OCC(COC(=O)CCCCCCC)COC(=O)CCCCCCC` [Compound 65], the Polydispersity [1] was 0.040, the “Size (nm)” value [1] was 62.56 nm and the “Apparent pKa” value [2] was 6.338. The Encapsulation efficiency [3] was 96.01% and the “EPO expression over MC3” value [4] was “A (≥2)”.
With `CCCCCCCC(=O)OCC(CCCCN(CCCCC(COC(=O)CCCCCCC)COC(=O)CCCCCCC)CC1(CO)CCC1)COC(=O)CCCCCCC` [Compound 45] the Polydispersity [1] was 0.14, the “Size (nm)” value [1] was 61.88 nm and the Encapsulation efficiency [3] was 86.40%.
With `CCCCCCCC(=O)OCC(CCCCN(CCCCC(COC(=O)CCCCCCC)COC(=O)CCCCCCC)C1CC(O)C1)COC(=O)CCCCCCC` (centres unmarked) [Compound 23] the Polydispersity [1] was 0.084, the “Size (nm)” value [1] was 69.97 nm and the “Apparent pKa” value [2] was 6.601. The Encapsulation efficiency [3] was 89.04% and the “EPO expression over MC3” value [4] was “A (≥2)”.
With `CCCCCCCC(=O)OCC(COC(=O)CCCCCCC)COC(=O)CCCCCN(CCCO)CCCCCC(=O)OCC(COC(=O)CCCCCCC)COC(=O)CCCCCCC` [Compound 66] the Polydispersity [1] was 0.010, the “Size (nm)” value [1] was 113.3 nm and the “Apparent pKa” value [2] was 6.379. For the same molecule, the Encapsulation efficiency [3] was 95.46% and the “EPO expression over MC3” value [4] was “A (≥2)”.
For `CCCCCCCCCCCC(=O)OCC(COC(=O)CCCCCCCCCCC)COC(=O)CCCCCN(CCO)CCCCCC(=O)OCC(COC(=O)CCCCCCCCCCC)COC(=O)CCCCCCCCCCC` [Compound 73], the Polydispersity [1] was 0.010, the “Size (nm)” value [1] was 71.34 nm and the “Apparent pKa” value [2] was 6.536. For the same molecule, the Encapsulation efficiency [3] was 96.37% and the “EPO expression over MC3” value [4] was “C (≥0.1 and <1)”.
With `CCCCCCCC/C=C\CCCCCCCC(=O)OCCCCCCN(CCO)CCCCC(COC(=O)CCCCCCC)COC(=O)CCCCCCC` [Compound 24] the Polydispersity [1] was 0.07, the “Size (nm)” value [1] was 70.66 nm and the “Apparent pKa” value [2] was 6.745. For the same molecule, the Encapsulation efficiency [3] was 90.29% and the “EPO expression over MC3” value [4] was “C (≥0.1 and <1)”.
In the case of `CCCCCCCC(=O)OCC(CCCCN(CCCCC(COC(=O)CCCCCCC)COC(=O)CCCCCCC)[C@H]1C[C@@H](O)C1)COC(=O)CCCCCCC` [Compound 43], the Polydispersity [1] is reported as 0.057, the “Size (nm)” value [1] is reported as 64.77 nm and the “Apparent pKa” value [2] is reported as 6.653. For the same molecule, the Encapsulation efficiency [3] was 89.21% and the “EPO expression over MC3” value [4] was “A (≥2)”.
In the case of `CCCCCCCC(=O)OCC(CCCCN(CCCCC(COC(=O)CCCCCCC)COC(=O)CCCCCCC)CC1(CO)CCCC1)COC(=O)CCCCCCC` [Compound 49], the Polydispersity [1] is reported as 0.111, the “Size (nm)” value [1] is reported as 69.44 nm and the Encapsulation efficiency [3] is reported as 83.82%.
With `CCCCCCCC(=O)OCC(CCCCN(CCCCC(COC(=O)CCCCCCC)COC(=O)CCCCCCC)CCC1(O)CCCCC1)COC(=O)CCCCCCC` [Compound 50] the Polydispersity [1] was 0.117, the “Size (nm)” value [1] was 67.07 nm and the Encapsulation efficiency [3] was 83.93%.
For `CCCCCCCC(=O)OCC(CCCCN(CCO)CCCCC(COC(=O)CCCCCCC)COC(=O)CCCCCCC)COC(=O)CCCCCCC` [Compound 1], the “EPO expression over MC3” value [4] was “A (≥2)”.
In the case of `CCCCCCCCCCCCOC(=O)CCCCCN(CCO)CCCCCC(=O)OCC(COC(=O)CCCCCCC)COC(=O)CCCCCCC` [Compound 4], the “Apparent pKa” value [2] is reported as 6.943 and the “EPO expression over MC3” value [4] is reported as “C (≥0.1 and <1)”.
With `CCCCCCCCC(CCCCCC)C(=O)OCC(CCCCN(CCO)CCCCC(COC(=O)CCCCCCC)COC(=O)CCCCCCC)COC(=O)C(CCCCCC)CCCCCCCC` (centres unmarked) [Compound 12] the Polydispersity [1] was 0.053, the “Size (nm)” value [1] was 56.95 nm and the Encapsulation efficiency [3] was 87.61%. The “EPO expression over MC3” value [4] was “D (<0.1)”.
For `CCCCCCCC(=O)OCC(CCCCN(CCCCC(COC(=O)CCCCCCC)COC(=O)CCCCCCC)CCN(CCO)C1CCC1)COC(=O)CCCCCCC` [Compound 2], the “EPO expression over MC3” value [4] was “A (≥2)”.
For `CCCCCCCC(=O)OCC(CCCCN(CCCCC(COC(=O)CCCCCCC)COC(=O)CCCCCCC)[C@@H](CO)C(C)C)COC(=O)CCCCCCC` [Compound 44], the Polydispersity [1] was 0.126, the “Size (nm)” value [1] was 74.63 nm and the Encapsulation efficiency [3] was 86.17%.
With `CCCCCCCCCCCCCCCCCC(=O)OCCCCCCN(CCCCC(COC(=O)CCCCCCC)COC(=O)CCCCCCC)CCCNc1c(N(C)C)c(=O)c1=O` [Compound 41] the Polydispersity [1] was 0.08791, the “Size (nm)” value [1] was 55.42 nm and the Encapsulation efficiency [3] was 95.98%.
